According to patent publication US11242335B2, “Fluorine-substituted indazole compounds and uses thereof” (SUNSHINE LAKE PHARMA CO., LTD., priority 2017, dated 2022):

How the values were obtained:
[1] = target: T1, hERG potassium channel (Homo sapiens, UniProt Q12809); experiment: Inhibition of hERG potassium channel, manual patch clamp in HEK293 cells; type: cell-based; details: hERG tail current; HEK293 cells overexpressing hERG; whole cell patch clamp; 22-24° C.
T1 construct: expressed in transfected cells; host or cells: HEK293
Experimental: Each compound was weighed and dissolved in DMSO and diluted with DMSO to a serial solution (30, 10, 3.3, 1.1, 0.37 mM). The above serial solutions were diluted to 1000-fold with the extracellular fluid to prepare test solutions (final concentration was 30, 10, 3.3, 1.1, 0.37 μM respectively).
The HEK293 cells that overexpressed the hERG potassium channel were cultured in a 37° C., 5% CO2 incubator, and the culture medium contained DMEM, 15% fetal bovine serum, and 1% penicillin-streptomycin. When the cell density reached 80% of the culture plate, the cells were digested with trypsin/EDTA and transferred to a centrifuge tube, centrifuged at 1000 rpm for 3 minutes, then supernatant was discarded, and the cell culture medium was added. The cells were mixed uniformly by gently blowing and beating. […]
The whole cell recording mode was used to record the channel current in the experiment. Firstly, the extracellular fluid was perfused (approximately 2 mL per minute) and the data were continuous recorded, and the current was kept steady (the current decay was less than 5% in 5 minutes). […] The extracellular fluid containing the test compound was then perfused and the data were continuous recorded until the compound's inhibitory effect on the hERG current reached a steady state, at this time point the peak value of tail current was the current value after dosing. […]

[2] = Pharmacokinetics in male SD rats after intravenous and oral administration; type: in vivo
Experimental: Preparation of test compound solution: The test compound was formulated with 5% dimethylsulfoxide, 5% Solutol HS 15 and 90% physiological saline to give solution, which was used for oral and intravenous administration.
Male SD rats weighing 190-250 g were randomly divided into two groups, each group had three members; one group received test compound at a dose of 1.0 mg/kg by intravenous injection, the other group received test compound at a dose of 2.5 or 5.0 mg/kg by oral. After dosing, blood samples were collected at time points of 0.0833, 0.25, 0.5, 1.0, 2.0, 4.0, 7.0 and 24 h. Standard curve was plotted based on concentrations of the samples in a suitable range, the concentrations of test compounds in plasma samples were determined by using AB SCIEX API4000 LC-MS/MS in MRM mode. Pharmacokinetic parameters were calculated according to drug concentration-time curve using a noncompartmental method by WinNonLin 6.3 software.

T1 sequence (Q12809 whole entry): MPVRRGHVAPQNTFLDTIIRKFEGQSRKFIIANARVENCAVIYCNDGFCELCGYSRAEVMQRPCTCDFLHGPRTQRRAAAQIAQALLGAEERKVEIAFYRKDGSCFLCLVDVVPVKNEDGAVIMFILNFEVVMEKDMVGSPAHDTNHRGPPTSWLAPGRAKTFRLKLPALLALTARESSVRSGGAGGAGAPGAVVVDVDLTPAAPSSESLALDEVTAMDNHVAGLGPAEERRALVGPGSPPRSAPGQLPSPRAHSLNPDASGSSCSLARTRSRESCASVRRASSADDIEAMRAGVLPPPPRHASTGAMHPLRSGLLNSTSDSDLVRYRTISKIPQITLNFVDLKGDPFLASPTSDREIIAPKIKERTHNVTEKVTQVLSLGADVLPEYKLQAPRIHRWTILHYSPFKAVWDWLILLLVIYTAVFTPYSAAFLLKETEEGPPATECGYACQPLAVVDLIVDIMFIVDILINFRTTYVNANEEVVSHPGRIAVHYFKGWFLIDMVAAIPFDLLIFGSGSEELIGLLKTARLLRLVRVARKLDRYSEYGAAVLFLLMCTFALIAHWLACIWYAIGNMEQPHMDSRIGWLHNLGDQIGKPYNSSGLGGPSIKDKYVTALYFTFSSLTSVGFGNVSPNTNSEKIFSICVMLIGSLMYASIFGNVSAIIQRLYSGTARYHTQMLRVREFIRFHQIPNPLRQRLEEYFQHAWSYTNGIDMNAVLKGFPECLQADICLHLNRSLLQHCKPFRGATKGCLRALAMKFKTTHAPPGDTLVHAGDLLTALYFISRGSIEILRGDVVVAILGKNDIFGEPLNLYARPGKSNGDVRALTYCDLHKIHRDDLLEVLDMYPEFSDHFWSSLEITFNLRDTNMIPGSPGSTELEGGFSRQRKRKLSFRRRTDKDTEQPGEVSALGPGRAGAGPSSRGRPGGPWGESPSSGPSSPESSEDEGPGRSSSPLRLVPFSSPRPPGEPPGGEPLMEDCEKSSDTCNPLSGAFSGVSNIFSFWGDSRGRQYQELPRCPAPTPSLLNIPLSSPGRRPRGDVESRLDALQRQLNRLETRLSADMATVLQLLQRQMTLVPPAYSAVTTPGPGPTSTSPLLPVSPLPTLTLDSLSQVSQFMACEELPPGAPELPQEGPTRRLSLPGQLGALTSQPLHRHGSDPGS

F ([2]; po 5 mg/kg versus iv 1 mg/kg): 99.6%
AUC(0-t) ([2]; rat, plasma, iv, 1 mg/kg): 7520 ng·h/mL
Cmax ([2]; rat, plasma, iv, 1 mg/kg): 1500 ng/mL
Tmax ([2]; rat, plasma, iv, 1 mg/kg): 0.083 h
clearance ([2]; rat, plasma, iv, 1 mg/kg): 2.21 mL/min/kg
half-life ([2]; rat, plasma, iv, 1 mg/kg): 3.54 h
Vd ([2]; rat, plasma, iv, 1 mg/kg, read-out: Vss): 0.63 L/kg
AUC(0-t) ([2]; rat, plasma, po, 5 mg/kg): 37500 ng·h/mL
Cmax ([2]; rat, plasma, po, 5 mg/kg): 3070 ng/mL
Tmax ([2]; rat, plasma, po, 5 mg/kg): 2 h
half-life ([2]; rat, plasma, po, 5 mg/kg): 4.34 h
SMILES: COC(=O)Nc1c(N)nc(-c2nn(Cc3ccccc3F)c3c(F)cccc23)nc1N [Example 10, methyl (4,6-diamino-2-(7-fluoro-1-(2-fluorobenzyl)-1H-indazol-3-yl)pyrimidin-5-yl)carbamate]
IC50 [1]: 19.9 µM
